Measured values from patent US12582641B2, “Sulfur-containing compound based on glutarimide skeleton and application thereof” (SHANGHAITECH UNIVERSITY, priority 2019, dated 2026).

test system: MM.1S cells; assay: Proliferation inhibition (IC50) in MM.1S cells, cell viability assay; conditions: Homo sapiens, MM1.S, 72 h, read-out: IC50 (nM), proliferation inhibitory activity of MM.1S cells (half inhibitory concentration)

Q: Which IC50 does the source give for `O=C1CCC(N2Cc3c(SCCCCCCC(=O)N4CCCCC4)cccc3C2=O)C(=O)N1` (stereo not shown) [SIAIS1220115, 3-(1-oxo-4-((7-oxo-7-(piperidin-1-yl)heptyl)thio)isoindolin-2-yl)piperidine-2,6-dione] here?
A: 0.05 nM

Q: With `CC(C)N(C(=O)CCCCCCSc1cccc2c1CN(C1CCC(=O)NC1=O)C2=O)C(C)C` (stereo not shown) [SIAIS1220117, 7-((2-(2,6-dioxopiperidin-3-yl)-1-oxoisoindolin-4-yl)thio)-N,N-diisopropylheptanamide] as the compound, how does the IC50 read?
A: 0.07 nM

Q: For `O=C1CCC(N2Cc3c(SCCCCCCCCCSCCCC(F)(F)C(F)(F)F)cccc3C2=O)C(=O)N1` (stereo not shown) [SIAIS1220131, 3-(1-oxo-4-((9-((4,4,5,5,5-pentafluoropentyl)thio)nonyl)thio)isoindolin-2-yl)piperidine-2,6-dione], which IC50 is on record?
A: 9.71 nM

Q: With `O=C1CCC(N2Cc3c(SCCCC(F)(F)C(F)(F)F)cccc3C2=O)C(=O)N1` (stereo not shown) [SIAIS1220133, 3-(1-oxo-4-((4,4,5,5,5-pentafluoropentyl)thio)isoindolin-2-yl)piperidine-2,6-dione] as the compound, how does the IC50 read?
A: 4.73 nM

Q: How did the IC50 turn out when `O=C1CCC(N2Cc3c(SCCCCCCCCS)cccc3C2=O)C(=O)N1` (stereo not shown) [SIAIS1220143, 3-(4-((8-mercaptooctyl)thio)-1-oxoisoindolin-2-yl)piperidine-2,6-dione] was run?
A: 2.73 nM

Q: How did the IC50 turn out when `O=C1CCC(N2Cc3c(SCCCCCCCCC[S+]([O-])CCCC(F)(F)C(F)(F)F)cccc3C2=O)C(=O)N1` (stereo not shown) [SIAIS1220145, 3-(1-oxo-4-((9-((4,4,5,5,5-pentafluoropentyl)sulfinyl)nonyl)thio)isoindolin-2-yl)piperidine-2,6-dione] was run?
A: 4.73 nM

Q: `O=C1CCC(N2Cc3c(SCCCCCCCCCS(=O)(=O)CCCC(F)(F)C(F)(F)F)cccc3C2=O)C(=O)N1` (stereo not shown) [SIAIS1220147, 3-(1-oxo-4-((9-((4,4,5,5,5-pentafluoropentyl)sulfonyl)nonyl)thio)isoindolin-2-yl)piperidine-2,6-dione] was tested. Which IC50 did it give?
A: 1.59 nM

Q: Which IC50 does the source give for `CC12CC3CC(C)(C1)CC(NCCCCCCCSc1cccc4c1CN(C1CCC(=O)NC1=O)C4=O)(C3)C2` (stereo not shown) [SIAIS1220157, 3-(4-((7-((3,5-dimethyladamantan-1-yl)amino)heptyl)thio)-1-oxoisoindolin-2-yl)piperidine-2,6-dione] here?
A: 0.02 nM

Q: Which IC50 does the source give for `O=C1CCC(N2Cc3c(SCCCCCCCNC4C5CC6CC(C5)CC4C6)cccc3C2=O)C(=O)N1` (stereo not shown) [SIAIS1220159, 3-(4-((7-((adamantan-2-yl)amino)heptyl)thio)-1-oxoisoindolin-2-yl)piperidine-2,6-dione] here?
A: 0.01 nM

Q: `O=C1CCC(N2Cc3c(SCCCCCCCN4CCCC4)cccc3C2=O)C(=O)N1` (stereo not shown) [SIAIS1220161, 3-(1-oxo-4-((7-(pyrrolidin-1-yl)heptyl)thio)isoindolin-2-yl)piperidine-2,6-dione] was tested. Which IC50 did it give?
A: 0.12 nM

Q: With `O=C1CCC(N2Cc3c(SCCCCCCCN4CCCCCC4)cccc3C2=O)C(=O)N1` (stereo not shown) [SIAIS1220163, 3-(4-((7-(azepan-1-yl)heptyl)thio)-1-oxoisoindolin-2-yl)piperidine-2,6-dione] as the compound, how does the IC50 read?
A: 0.03 nM

Q: With `O=C1CCC(N2Cc3c(SCc4ccc(CN5CCOCC5)cc4)cccc3C2=O)C(=O)N1` (stereo not shown) [SIAIS1220167, 3-(4-((4-(morpholinomethyl)benzyl)thio)-1-oxoisoindolin-2-yl)piperidine-2,6-dione] as the compound, how does the IC50 read?
A: 0.25 ± 0.01 nM

Q: For `O=C(CCCCN1CCCCC1)NCCSc1cccc2c1CN(C1CCC(=O)NC1=O)C2=O` (stereo not shown) [SIAIS1220169, N-(2-((2-(2,6-dioxopiperidin-3-yl)-1-oxoisoindolin-4-yl)thio)ethyl)-5-(piperidin-1-yl)pentanamide], which IC50 is on record?
A: 43 nM

Q: For `O=C1CCC(N2Cc3c(SCCCCCCCNCC45CC6CC(CC(C6)C4)C5)cccc3C2=O)C(=O)N1` (stereo not shown) [SIAIS1220171, 3-(4-((7-(((adamantan-1-yl)methyl)amino)heptyl)thio)-1-oxoisoindolin-2-yl)piperidine-2,6-dione], which IC50 is on record?
A: 0.044 ± 0.003 nM

Q: How did the IC50 turn out when `O=C1CCC(N2Cc3c(SCCCCCCNC45CC6CC(CC(C6)C4)C5)cccc3C2=O)C(=O)N1` (stereo not shown) [SIAIS1220177, 3-(4-((6-((adamantan-1-yl)amino)hexyl)thio)-1-oxoisoindolin-2-yl)piperidine-2,6-dione] was run?
A: 0.041 ± 0.018 nM

Q: How did the IC50 turn out when `O=C1CCC(N2Cc3c(SCCCCCCNC4C5CC6CC(C5)CC4C6)cccc3C2=O)C(=O)N1` (stereo not shown) [SIAIS1220179, 3-(4-((6-((adamantan-2-yl)amino)hexyl)thio)-1-oxoisoindolin-2-yl)piperidine-2,6-dione] was run?
A: 0.036 ± 0.01 nM

Q: For `O=C1CCC(N2Cc3c(SCCCCCCNC4CCCCC4)cccc3C2=O)C(=O)N1` (stereo not shown) [SIAIS1220183, 3-(4-((6-(cyclohexylamino)hexyl)thio)-1-oxoisoindolin-2-yl)piperidine-2,6-dione], which IC50 is on record?
A: 0.197 nM

Q: With `O=C1CCC(N2Cc3c(SCCCCCCCNC4CCCCC4)cccc3C2=O)C(=O)N1` (stereo not shown) [SIAIS1220185, 3-(4-((7-(cyclohexylamino)heptyl)thio)-1-oxoisoindolin-2-yl)piperidine-2,6-dione] as the compound, how does the IC50 read?
A: 0.026 ± 0.007 nM

Q: Which IC50 does the source give for `O=C1CCC(N2Cc3c(SCCCCCCCNc4ccccc4)cccc3C2=O)C(=O)N1` (stereo not shown) [SIAIS1220187, 3-(1-oxo-4-((7-(phenylamino)heptyl)thio)isoindolin-2-yl)piperidine-2,6-dione] here?
A: 0.598 nM

Q: For `CN(CCCCCCCSc1cccc2c1CN(C1CCC(=O)NC1=O)C2=O)c1ccccc1` (stereo not shown) [SIAIS1220189, 3-(4-((7-(methyl(phenyl)amino)heptyl)thio)-1-oxoisoindolin-2-yl)piperidine-2,6-dione], which IC50 is on record?
A: 0.553 nM

Q: Which IC50 does the source give for `O=C1CCC(N2Cc3c(SCCCCCCCN4CCCCCCC4)cccc3C2=O)C(=O)N1` (stereo not shown) [SIAIS1220193, 3-(4-((7-(azocan-1-yl)heptyl)thio)-1-oxoisoindolin-2-yl)piperidine-2,6-dione] here?
A: 0.03 ± 0.01 nM

Q: With `O=C1CCC(N2Cc3c(SCCCCCCC(=O)NC45CC6CC(CC(C6)C4)C5)cccc3C2=O)C(=O)N1` (stereo not shown) [SIAIS1220195, N-(adamantan-1-yl)-7-((2-(2,6-dioxopiperidin-3-yl)-1-oxoisoindolin-4-yl)thio)heptanamide] as the compound, how does the IC50 read?
A: 0.048 nM

Q: `CC12CC3CC(C)(C1)CC(NC(=O)CCCCCCSc1cccc4c1CN(C1CCC(=O)NC1=O)C4=O)(C3)C2` (stereo not shown) [SIAIS1220197, N-(3,5-dimethyladamantan-1-yl)-7-((2-(2,6-dioxopiperidin-3-yl)-1-oxoisoindolin-4-yl)thio)heptanamide] was tested. Which IC50 did it give?
A: 0.578 nM

Q: With `O=C1CCC(N2Cc3c(SCCCCCCC(=O)NC4C5CC6CC(C5)CC4C6)cccc3C2=O)C(=O)N1` (stereo not shown) [SIAIS1220199, N-(adamantan-2-yl)-7-((2-(2,6-dioxopiperidin-3-yl)-1-oxoisoindolin-4-yl)thio)heptanamide] as the compound, how does the IC50 read?
A: 0.026 ± 0.001 nM

Q: Which IC50 does the source give for `O=C1CCC(N2Cc3c(SCc4ccc(CNC56CC7CC(CC(C7)C5)C6)cc4)cccc3C2=O)C(=O)N1` (stereo not shown) [SIAIS1221003, 3-(4-((4-(((adamantan-1-yl)amino)methyl)benzyl)thio)-1-oxoisoindolin-2-yl)piperidine-2,6-dione] here?
A: 0.024 ± 0.01 nM

Q: How did the IC50 turn out when `O=C1CCC(N2Cc3c(SCc4ccc(CNC5C6CC7CC(C6)CC5C7)cc4)cccc3C2=O)C(=O)N1` (stereo not shown) [SIAIS1221005, 3-(4-((4-((adamantan-2-ylamino)methyl)benzyl)thio)-1-oxoisoindolin-2-yl)piperidine-2,6-dione] was run?
A: 0.035 ± 0.007 nM

Q: For `O=C1CCC(N2Cc3c(SCCCCCCNCC45CC6CC(CC(C6)C4)C5)cccc3C2=O)C(=O)N1` (stereo not shown) [SIAIS1221013, 3-(4-((6-((adamantan-1-ylmethyl)amino)hexyl)thio)-1-oxoisoindolin-2-yl)piperidine-2,6-dione], which IC50 is on record?
A: 0.028 ± 0.012 nM

Q: For `O=C1CCC(N2Cc3c(SCCCCCCCN4CCC5(CCCCC5)CC4)cccc3C2=O)C(=O)N1` (stereo not shown) [SIAIS1221015, 3-(4-((7-(3-azaspiro[5.5]undecan-3-yl)heptyl)thio)-1-oxoisoindolin-2-yl)piperidine-2,6-dione], which IC50 is on record?
A: 0.04 ± 0.01 nM

Q: How did the IC50 turn out when `CC1(C)[C@@H]2CC[C@@]1(C)[C@@H](NCCCCCCCSc1cccc3c1CN(C1CCC(=O)NC1=O)C3=O)C2` (stereo partly drawn) [SIAIS1221019, 3-(1-oxo-4-((7-(((1R,2S,4R)-1,7,7-trimethylbicyclo[2.2.1]heptan-2-yl)amino)heptyl)thio)isoindolin-2-yl)piperidine-2,6-dione] was run?
A: 0.007 nM

Q: With `CC1CC(C)CN(CCCCCCCSc2cccc3c2CN(C2CCC(=O)NC2=O)C3=O)C1` (stereo not shown) [SIAIS1221021, 3-(4-((7-(3,5-dimethylpiperidin-1-yl)heptyl)thio)-1-oxoisoindolin-2-yl)piperidine-2,6-dione] as the compound, how does the IC50 read?
A: 0.047 ± 0.001 nM

Q: With `O=C1CCC(N2Cc3c(SCCCCCCCSC45CC6CC(CC(C6)C4)C5)cccc3C2=O)C(=O)N1` (stereo not shown) [SIAIS1221025, 3-(4-((7-(adamantan-1-ylthio)heptyl)thio)-1-oxoisoindolin-2-yl)piperidine-2,6-dione] as the compound, how does the IC50 read?
A: 0.061 nM

Q: With `CC1(C)CCN(CCCCCCCSc2cccc3c2CN(C2CCC(=O)NC2=O)C3=O)CC1` (stereo not shown) [SIAIS1221027, 3-(4-((7-(4,4-dimethylpiperidin-1-yl)heptyl)thio)-1-oxoisoindolin-2-yl)piperidine-2,6-dione] as the compound, how does the IC50 read?
A: 0.038 ± 0.006 nM

Q: `CC1(C)CCC(NCCCCCCCSc2cccc3c2CN(C2CCC(=O)NC2=O)C3=O)CC1` (stereo not shown) [SIAIS1221029, 3-(4-((7-((4,4-dimethylcyclohexyl)amino)heptyl)thio)-1-oxoisoindolin-2-yl)piperidine-2,6-dione] was tested. Which IC50 did it give?
A: 0.025 nM

Q: For `O=C1CCC(N2C(=O)c3cccc(SCCCCCCCN4CCCCC4)c3C2=O)C(=O)N1` (stereo not shown) [SIAIS1221033, 2-(2,6-dioxopiperidin-3-yl)-4-((7-(piperidin-1-yl)heptyl)thio)isoindoline-1,3-dione], which IC50 is on record?
A: 1.62 nM

Q: How did the IC50 turn out when `O=C1CCC(N2C(=O)c3cccc(SCCCCCCCNC45CC6CC(CC(C6)C4)C5)c3C2=O)C(=O)N1` (stereo not shown) [SIAIS1221069, 4-((7-((adamantan-1-yl)amino)heptyl)thio)-2-(2,6-dioxopiperidin-3-yl)isoindoline-1,3-dione] was run?
A: 0.02 nM

Q: Which IC50 does the source give for `O=C1CCC(N2Cc3c(SCc4ccc(CNC5CCCCC5)cc4)cccc3C2=O)C(=O)N1` (stereo not shown) [SIAIS1221071, 3-(4-((4-((cyclohexylamino)methyl)benzyl)thio)-1-oxoisoindolin-2-yl)piperidine-2,6-dione] here?
A: 0.072 ± 0.004 nM

Q: With `O=C1CCC(N2C(=O)c3ccc(SCCCCCCCNC45CC6CC(CC(C6)C4)C5)cc3C2=O)C(=O)N1` (stereo not shown) [SIAIS1221075, 5-((7-((adamantan-1-yl)amino)heptyl)thio)-2-(2,6-dioxopiperidin-3-yl)isoindoline-1,3-dione] as the compound, how does the IC50 read?
A: 15.8 nM
